system: human pancreatic cancer cell line MiaPaCa2 (ATCC CRL-1420); assay: Cell growth assay (CellTiterGlo, 72 hours); type: cell-based; details: MIA PaCa-2, MiaPaCa2 cells, 72 hours, read-out: IC50 MiaPaCa
In short: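 MiaPaCa2 cells (10^3/well) seeded in supplemented DMEM overnight, then exposed in quadruplicate to compound at 100 down to 0.1 μM for 72 h at 37° C. Growth read by CellTiterGlo luminescence, medium-only background subtracted, normalised to untreated cells; IC50 = concentration reducing growth to 50%.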

IC50	Structure (SMILES)
12100 nM	NC1CCN(Cc2ccc3cncc(-c4ccsc4)c3c2)CC1 [Example 180]
22800 nM	NC1CCN(Cc2ccc3cncc(-c4ccc(CO)cc4)c3c2)CC1 [Example 181]
38000 nM	NC1CCN(Cc2ccc3cncc(-c4cccc(CO)c4)c3c2)CC1 [Example 182]
8640 nM	NCc1ccc(-c2cncc3ccc(CN4CCC(N)CC4)cc23)cc1 [Example 183]
7890 nM	NCc1cccc(-c2cncc3ccc(CN4CCC(N)CC4)cc23)c1 [Example 184]
22000 nM	CC(=O)c1ccc(-c2cncc3ccc(CN4CCC(N)CC4)cc23)cc1 [Example 185]
24000 nM	CC(=O)c1cccc(-c2cncc3ccc(CN4CCC(N)CC4)cc23)c1 [Example 186]
13000 nM	NC1CCN(Cc2ccc3cncc(-c4cccc(O)c4)c3c2)CC1 [Example 187]
5630 nM	NC1CCN(Cc2ccc3cncc(-c4cc5cc(Cl)ccc5o4)c3c2)CC1 [Example 188]
8390 nM	c1ccc2oc(-c3cncc4ccc(Cn5ccc6cnccc65)cc34)cc2c1 [Example 189, 4-(Benzofuran-2-yl)-6-(pyrrolo[3,2-c]pyridin-1-ylmethyl)isoquinoline]
7440 nM	Nc1cc(CNc2ccc3cncc(-c4cc5ccccc5o4)c3c2)ccn1 [Example 190, N-[(2-Amino-4-pyridyl)methyl]-4-(benzofuran-2-yl)isoquinolin-6-amine]
19000 nM	c1ccc2oc(-c3cncc4ccc(Cn5ccc6ccncc65)cc34)cc2c1 [Example 191, 4-(Benzofuran-2-yl)-6-(pryrrolo[2,3-c]pyridin-1-ylmethyl)isoquinoline]
26000 nM	Nc1ccc2c(ccn2Cc2ccc3cncc(-c4cc5ccccc5o4)c3c2)c1 [Example 192, 1-[[4-(Benzofuran-2-yl)-6-isoquinolyl]methyl]indol-5-amine]
11500 nM	NC1CCN(Cc2ccc3cncc(-c4ccc5cnccc5c4)c3c2)CC1 [Example 193]
16300 nM	NC1CCN(Cc2ccc3cncc(-c4ccc5ccncc5c4)c3c2)CC1 [Example 194]
16200 nM	NC1CCN(Cc2ccc3cncc(-c4ccc5ncccc5c4)c3c2)CC1 [Example 195]
20400 nM	NC1CCN(Cc2ccc3cncc(-c4ccc5cccnc5c4)c3c2)CC1 [Example 196]
9860 nM	NC1CCN(Cc2ccc3cncc(-c4ccc(Cl)cc4Cl)c3c2)CC1 [Example 197]
11100 nM	COc1cccc(-c2cncc3ccc(CN4CCC(N)CC4)cc23)c1 [Example 198]
8670 nM	NC1CCN(Cc2ccc3cncc(-c4ccc5c(c4)OCO5)c3c2)CC1 [Example 199]
16400 nM	NC1CCN(Cc2ccc3cncc(-c4ccc(Cl)c(Cl)c4)c3c2)CC1 [Example 200]
25200 nM	COc1ccc(-c2cncc3ccc(CN4CCC(N)CC4)cc23)cn1 [Example 201]
19400 nM	COc1ccc(-c2cncc3ccc(CN4CCC(N)CC4)cc23)cc1OC [Example 202]

IC50	Structure (SMILES)
4520 nM	N[C@@H]1CCN(Cc2ccc3cncc(-c4cc5ccccc5o4)c3c2)C[C@H]1F [Example 205]
8060 nM	N[C@@H]1CCN(Cc2ccc3cncc(-c4cc5ccccc5o4)c3c2)C[C@@H]1F [Example 206]
8040 nM	NC1CCN(Cc2ccc3cncc(-c4cc5ccccc5o4)c3c2)c2ccccc21 (centres unmarked) [Example 207]
8170 nM	c1coc(-c2cncc3ccc(CNc4ccnc5ccccc45)cc23)c1 [Example 208]
7500 nM	Cc1ccc(-c2cncc3ccc(CNc4ccnc5ccccc45)cc23)o1 [Example 209]
1760 nM	CN(c1ccc2cncc(-c3cc4ccccc4o3)c2c1)C1CCC(N)CC1 (centres unmarked) [Example 210]
1700 nM	c1ccc2oc(-c3cncc4ccc(NC5CCCNC5)cc34)cc2c1 (centres unmarked) [Example 212]
3480 nM	c1ccc2oc(-c3cncc4ccc(NCC5CCNCC5)cc34)cc2c1 [Example 213]
1420 nM	c1ccc2oc(-c3cncc4ccc(NCC5CCCNC5)cc34)cc2c1 (centres unmarked) [Example 214]
3300 nM	Nc1ncc(-c2ccc(Cl)cc2)c2cc(CN3CCC(N)CC3)ccc12 [Example 215]
2520 nM	Nc1ncc(-c2cccc(Cl)c2)c2cc(CN3CCC(N)CC3)ccc12 [Example 216]
3060 nM	Nc1ncc(-c2ccc(Cl)c(Cl)c2)c2cc(CN3CCC(N)CC3)ccc12 [Example 217]
2470 nM	Nc1ncc(-c2cc(Cl)cc(Cl)c2)c2cc(CN3CCC(N)CC3)ccc12 [Example 218]
5310 nM	Nc1ncc(-c2ccc(F)cc2)c2cc(CN3CCC(N)CC3)ccc12 [Example 219]
4280 nM	Nc1ncc(-c2cccc(F)c2)c2cc(CN3CCC(N)CC3)ccc12 [Example 220]
5030 nM	Nc1ncc(-c2ccc(F)c(F)c2)c2cc(CN3CCC(N)CC3)ccc12 [Example 221]
3500 nM	Nc1ncc(-c2cc(F)cc(F)c2)c2cc(CN3CCC(N)CC3)ccc12 [Example 222]
3940 nM	Nc1ncc(-c2cc3ccccc3o2)c2cc(CN3CCNCC3)ccc12 [Example 223]
11600 nM	c1ccc2oc(-c3cncc4ccc(CN5CCNCC5)cc34)cc2c1 [Example 224, 4-(Benzofuran-2-yl)-6-(piperazin-1-ylmethyl)isoquinoline]
20400 nM	Cc1ccc(-c2cncc3ccc(CN4CCNCC4)cc23)o1 [Example 226]
4430 nM	NC1CCN(Cc2ccc3cncc(-c4nc5ccccc5s4)c3c2)CC1 [Example 227, 1-[[4-(1,3-Benzothiazol-2-yl)-6-isoquinolyl]methyl]piperidin-4-amine]
4980 nM	NC1CCN(Cc2ccc3cncc(-c4nc5ccccc5o4)c3c2)CC1 [Example 228]

Structure (SMILES)	IC50
CN(c1ccc2cncc(-c3cc4ccccc4o3)c2c1)C1CCNCC1 [Example 211]	5570 nM

same assay, conditions: MIA PaCa-2, at 50 μM, read-out: Inhibition of MiaPaCa growth at indicated concentration

Structure (SMILES)	inhibition at 50 µM
Cn1cc(-c2cncc3ccc(CN4CCC(N)CC4)cc23)cn1 [Example 203]	48%
NC1CCN(Cc2ccc3cncc(-c4cn[nH]c4)c3c2)CC1 [Example 204]	55%
c1coc(-c2cncc3ccc(CN4CCNCC4)cc23)c1 [Example 225]	65%

molecular target: T1, MNK1 (Homo sapiens, UniProt Q9BUB5); assay: MNK inhibition assay (Z-Lyte kinase assay, Ser/Thr 7 peptide); type: biochemical; details: at 1 μM; read-out: Inhibition of MNK1 activity at indicated concentration
T1 construct: purchased Life Technologies or Carna Biosciences PV6023 or 02-145; host or cells: baculovirus infected insect cells
In short: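 Recombinant GST-MNK1 from baculovirus-infected insect cells, Z-Lyte Ser/Thr 7 peptide, enzyme set for ~30% phosphorylation in buffer-only wells; 3 hours at 31° C. Compounds at 50–10000 nM (potent ones down to 0.5 nM), at least duplicate. IC50 from % substrate phosphorylation versus buffer-only wells, fluorescence read-out.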

T1 sequence (Q9BUB5 whole entry): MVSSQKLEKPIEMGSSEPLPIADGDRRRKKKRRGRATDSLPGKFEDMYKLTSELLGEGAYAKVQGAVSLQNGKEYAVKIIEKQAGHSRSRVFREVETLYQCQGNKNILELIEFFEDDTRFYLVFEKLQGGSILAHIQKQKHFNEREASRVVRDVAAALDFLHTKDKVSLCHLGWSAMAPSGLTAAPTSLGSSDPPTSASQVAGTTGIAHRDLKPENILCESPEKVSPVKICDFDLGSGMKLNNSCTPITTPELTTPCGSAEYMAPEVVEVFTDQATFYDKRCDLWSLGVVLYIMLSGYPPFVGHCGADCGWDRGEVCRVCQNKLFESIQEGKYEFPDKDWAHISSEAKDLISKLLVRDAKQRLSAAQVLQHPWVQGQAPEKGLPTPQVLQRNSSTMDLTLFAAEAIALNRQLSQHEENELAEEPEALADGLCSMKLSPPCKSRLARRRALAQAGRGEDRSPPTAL

inhibition at 1 µM	Structure (SMILES)
35%	NCc1cccc(-c2cncc3ccc(CN4CCC(N)CC4)cc23)c1 [Example 184]

same assay, conditions: recombinant GST-MNK1, 3 hours at 31° C.

IC50	Structure (SMILES)
177 nM	NC1CCN(Cc2ccc3cncc(-c4ccsc4)c3c2)CC1 [Example 180]
522 nM	NC1CCN(Cc2ccc3cncc(-c4ccc(CO)cc4)c3c2)CC1 [Example 181]
1180 nM	NC1CCN(Cc2ccc3cncc(-c4cccc(CO)c4)c3c2)CC1 [Example 182]
306 nM	NCc1ccc(-c2cncc3ccc(CN4CCC(N)CC4)cc23)cc1 [Example 183]
849 nM	CC(=O)c1ccc(-c2cncc3ccc(CN4CCC(N)CC4)cc23)cc1 [Example 185]
1240 nM	CC(=O)c1cccc(-c2cncc3ccc(CN4CCC(N)CC4)cc23)c1 [Example 186]
266 nM	NC1CCN(Cc2ccc3cncc(-c4cccc(O)c4)c3c2)CC1 [Example 187]
340 nM	NC1CCN(Cc2ccc3cncc(-c4cc5cc(Cl)ccc5o4)c3c2)CC1 [Example 188]
11 nM	c1ccc2oc(-c3cncc4ccc(Cn5ccc6cnccc65)cc34)cc2c1 [Example 189, 4-(Benzofuran-2-yl)-6-(pyrrolo[3,2-c]pyridin-1-ylmethyl)isoquinoline]
87 nM	Nc1cc(CNc2ccc3cncc(-c4cc5ccccc5o4)c3c2)ccn1 [Example 190, N-[(2-Amino-4-pyridyl)methyl]-4-(benzofuran-2-yl)isoquinolin-6-amine]
437 nM	c1ccc2oc(-c3cncc4ccc(Cn5ccc6ccncc65)cc34)cc2c1 [Example 191, 4-(Benzofuran-2-yl)-6-(pryrrolo[2,3-c]pyridin-1-ylmethyl)isoquinoline]
1550 nM	Nc1ccc2c(ccn2Cc2ccc3cncc(-c4cc5ccccc5o4)c3c2)c1 [Example 192, 1-[[4-(Benzofuran-2-yl)-6-isoquinolyl]methyl]indol-5-amine]
1050 nM	NC1CCN(Cc2ccc3cncc(-c4ccc5cnccc5c4)c3c2)CC1 [Example 193]
797 nM	NC1CCN(Cc2ccc3cncc(-c4ccc5ccncc5c4)c3c2)CC1 [Example 194]
797 nM	NC1CCN(Cc2ccc3cncc(-c4ccc5ncccc5c4)c3c2)CC1 [Example 195]
331 nM	NC1CCN(Cc2ccc3cncc(-c4ccc5cccnc5c4)c3c2)CC1 [Example 196]
1390 nM	NC1CCN(Cc2ccc3cncc(-c4ccc(Cl)cc4Cl)c3c2)CC1 [Example 197]
882 nM	COc1cccc(-c2cncc3ccc(CN4CCC(N)CC4)cc23)c1 [Example 198]
212 nM	NC1CCN(Cc2ccc3cncc(-c4ccc5c(c4)OCO5)c3c2)CC1 [Example 199]
245 nM	NC1CCN(Cc2ccc3cncc(-c4ccc(Cl)c(Cl)c4)c3c2)CC1 [Example 200]
803 nM	COc1ccc(-c2cncc3ccc(CN4CCC(N)CC4)cc23)cn1 [Example 201]
1270 nM	COc1ccc(-c2cncc3ccc(CN4CCC(N)CC4)cc23)cc1OC [Example 202]
624 nM	Cn1cc(-c2cncc3ccc(CN4CCC(N)CC4)cc23)cn1 [Example 203]
4700 nM	NC1CCN(Cc2ccc3cncc(-c4cn[nH]c4)c3c2)CC1 [Example 204]

IC50	Structure (SMILES)
2150 nM	N[C@@H]1CCN(Cc2ccc3cncc(-c4cc5ccccc5o4)c3c2)C[C@H]1F [Example 205]
17 nM	N[C@@H]1CCN(Cc2ccc3cncc(-c4cc5ccccc5o4)c3c2)C[C@@H]1F [Example 206]
606 nM	NC1CCN(Cc2ccc3cncc(-c4cc5ccccc5o4)c3c2)c2ccccc21 (centres unmarked) [Example 207]
56 nM	c1coc(-c2cncc3ccc(CNc4ccnc5ccccc45)cc23)c1 [Example 208]
56 nM	Cc1ccc(-c2cncc3ccc(CNc4ccnc5ccccc45)cc23)o1 [Example 209]
22 nM	CN(c1ccc2cncc(-c3cc4ccccc4o3)c2c1)C1CCC(N)CC1 (centres unmarked) [Example 210]
418 nM	c1ccc2oc(-c3cncc4ccc(NC5CCCNC5)cc34)cc2c1 (centres unmarked) [Example 212]
113 nM	c1ccc2oc(-c3cncc4ccc(NCC5CCNCC5)cc34)cc2c1 [Example 213]
534 nM	c1ccc2oc(-c3cncc4ccc(NCC5CCCNC5)cc34)cc2c1 (centres unmarked) [Example 214]
473 nM	Nc1ncc(-c2ccc(Cl)cc2)c2cc(CN3CCC(N)CC3)ccc12 [Example 215]
1110 nM	Nc1ncc(-c2cccc(Cl)c2)c2cc(CN3CCC(N)CC3)ccc12 [Example 216]
3010 nM	Nc1ncc(-c2ccc(Cl)c(Cl)c2)c2cc(CN3CCC(N)CC3)ccc12 [Example 217]
5720 nM	Nc1ncc(-c2cc(Cl)cc(Cl)c2)c2cc(CN3CCC(N)CC3)ccc12 [Example 218]
1020 nM	Nc1ncc(-c2ccc(F)cc2)c2cc(CN3CCC(N)CC3)ccc12 [Example 219]
1470 nM	Nc1ncc(-c2cccc(F)c2)c2cc(CN3CCC(N)CC3)ccc12 [Example 220]
351 nM	Nc1ncc(-c2ccc(F)c(F)c2)c2cc(CN3CCC(N)CC3)ccc12 [Example 221]
1910 nM	Nc1ncc(-c2cc(F)cc(F)c2)c2cc(CN3CCC(N)CC3)ccc12 [Example 222]
1140 nM	Nc1ncc(-c2cc3ccccc3o2)c2cc(CN3CCNCC3)ccc12 [Example 223]
222 nM	c1ccc2oc(-c3cncc4ccc(CN5CCNCC5)cc34)cc2c1 [Example 224, 4-(Benzofuran-2-yl)-6-(piperazin-1-ylmethyl)isoquinoline]
96 nM	c1coc(-c2cncc3ccc(CN4CCNCC4)cc23)c1 [Example 225]
229 nM	Cc1ccc(-c2cncc3ccc(CN4CCNCC4)cc23)o1 [Example 226]
1020 nM	NC1CCN(Cc2ccc3cncc(-c4nc5ccccc5s4)c3c2)CC1 [Example 227, 1-[[4-(1,3-Benzothiazol-2-yl)-6-isoquinolyl]methyl]piperidin-4-amine]
483 nM	NC1CCN(Cc2ccc3cncc(-c4nc5ccccc5o4)c3c2)CC1 [Example 228]

Structure (SMILES)	IC50
CN(c1ccc2cncc(-c3cc4ccccc4o3)c2c1)C1CCNCC1 [Example 211]	425 nM
